Assay results as given in US12077503B2, “Substituted cyclic amides and their use as herbicides” (FMC CORPORATION, priority 2015, dated 2024).

Experiments:
Assay in all cases: Test E preemergence
Format in all cases: in vivo
Conditions in all cases: scale 0 to 100
Kochia (Kochia scoparia) = test system: Kochia (Kochia scoparia)
Method in brief: (§1)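 Seeds sown in silt loam treated preemergence, or plants 2 to 18 cm tall in peat-based potting medium treated postemergence, with test chemical in a non-phytotoxic solvent mixture containing surfactant. Kept in greenhouse 14 to 21 d, then visually rated against controls on a 0–100 scale (0 no effect, 100 complete control).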

[1] = test system: Panicum, fall (fall Panicum, Panicum dichotomiflorum)
Method in brief: as §1

[2] = test system: beggarticks (hairy beggarticks, Bidens pilosa)
Method in brief: as §1

corn (Zea mays) = test system: corn (Zea mays)
Method in brief: as §1

[3] = test system: crabgrass, Brazil (Brazilian crabgrass, Digitaria horizontalis)
Method in brief: as §1

[4] = test system: crabgrass, large (large crabgrass, Digitaria sangumnalis)
Method in brief: as §1

[5] = test system: field bindweed (Convolvulus arvensis)
Method in brief: as §1

[6] = test system: foxtail, giant (giant foxtail, Setaria faberii)
Method in brief: as §1

[7] = test system: johnsongrass (Sorghum halepense)
Method in brief: as §1

[8] = test system: morningglory (Ipomoea coccinea)
Method in brief: as §1

[9] = test system: nightshade (eastern black nightshade, Solanum ptycanthum)
Method in brief: as §1

[10] = test system: nutsedge, yellow (yellow nutsedge, Cyperus esculentus)
Method in brief: as §1

[11] = test system: pigweed, palmer (palmer pigweed, Amaranthus palmeri)
Method in brief: as §1

[12] = test system: ragweed (common ragweed, Ambrosia elatior)
Method in brief: as §1

[13] = test system: ryegrass, Italian (Italian ryegrass, Lolium multiflorum)
Method in brief: as §1

soybean (Glycine max) = test system: soybean (Glycine max)
Method in brief: as §1

[14] = test system: surinam grass (Brachiaria decumbens)
Method in brief: as §1

[15] = test system: velvetleaf (Abutilon theophrasti)
Method in brief: as §1

In the case of CN1C[C@H](c2ccc(C(F)(F)F)cc2)[C@@H](C(=O)Nc2cccc(F)c2F)C1=O [Compound 623, (3S,4S)—N-(2,3-difluorophenyl)-1-methyl-2-oxo-4-[4-(trifluoromethyl)phenyl]-3-pyrrolidinecarboxamide], the “Plant response rating: Kochia” value (Kochia (Kochia scoparia); 31 g ai/ha) is reported as 90, the “Plant response rating: Kochia” value (Kochia (Kochia scoparia); 62 g ai/ha) is reported as 90 and the “Plant response rating: Kochia” value (Kochia (Kochia scoparia); 125 g ai/ha) is reported as 95. For the same compound, the “Plant response rating: Kochia” value (Kochia (Kochia scoparia); 250 g ai/ha) was 95, the “Plant response rating: Panicum, Fall” value ([1]; 31 g ai/ha) was 90 and the “Plant response rating: Panicum, Fall” value ([1]; 62 g ai/ha) was 90. The “Plant response rating: Panicum, Fall” value ([1]; 125 g ai/ha) was 90, the “Plant response rating: Panicum, Fall” value ([1]; 250 g ai/ha) was 90 and the “Plant response rating: Beggarticks” value ([2]; 31 g ai/ha) was 0. The “Plant response rating: Beggarticks” value ([2]; 62 g ai/ha) was 0, the “Plant response rating: Beggarticks” value ([2]; 125 g ai/ha) was 0 and the “Plant response rating: Beggarticks” value ([2]; 250 g ai/ha) was 35. For the same compound, the “Plant response rating: Corn” value (corn (Zea mays); 31 g ai/ha) was 0, the “Plant response rating: Corn” value (corn (Zea mays); 62 g ai/ha) was 60 and the “Plant response rating: Corn” value (corn (Zea mays); 125 g ai/ha) was 75. For the same compound, the “Plant response rating: Corn” value (corn (Zea mays); 250 g ai/ha) was 65, the “Plant response rating: Crabgrass, Brazil” value ([3]; 31 g ai/ha) was 98 and the “Plant response rating: Crabgrass, Brazil” value ([3]; 62 g ai/ha) was 98. The “Plant response rating: Crabgrass, Brazil” value ([3]; 125 g ai/ha) was 98, the “Plant response rating: Crabgrass, Brazil” value ([3]; 250 g ai/ha) was 98 and the “Plant response rating: Crabgrass, Large” value ([4]; 31 g ai/ha) was 98. The “Plant response rating: Crabgrass, Large” value ([4]; 62 g ai/ha) was 98, the “Plant response rating: Crabgrass, Large” value ([4]; 125 g ai/ha) was 98 and the “Plant response rating: Crabgrass, Large” value ([4]; 250 g ai/ha) was 98. For the same compound, the “Plant response rating: Field Bindweed” value ([5]; 31 g ai/ha) was 0, the “Plant response rating: Field Bindweed” value ([5]; 62 g ai/ha) was 60 and the “Plant response rating: Field Bindweed” value ([5]; 125 g ai/ha) was 70. The “Plant response rating: Field Bindweed” value ([5]; 250 g ai/ha) was 75, the “Plant response rating: Foxtail, Giant” value ([6]; 31 g ai/ha) was 95 and the “Plant response rating: Foxtail, Giant” value ([6]; 62 g ai/ha) was 95. For the same compound, the “Plant response rating: Foxtail, Giant” value ([6]; 125 g ai/ha) was 95, the “Plant response rating: Foxtail, Giant” value ([6]; 250 g ai/ha) was 95 and the “Plant response rating: Johnsongrass” value ([7]; 31 g ai/ha) was 40. The “Plant response rating: Johnsongrass” value ([7]; 62 g ai/ha) was 60, the “Plant response rating: Johnsongrass” value ([7]; 125 g ai/ha) was 85 and the “Plant response rating: Johnsongrass” value ([7]; 250 g ai/ha) was 95. For the same compound, the “Plant response rating: Morningglory” value ([8]; 31 g ai/ha) was 0, the “Plant response rating: Morningglory” value ([8]; 62 g ai/ha) was 0 and the “Plant response rating: Morningglory” value ([8]; 125 g ai/ha) was 0. The “Plant response rating: Morningglory” value ([8]; 250 g ai/ha) was 0, the “Plant response rating: Nightshade” value ([9]; 62 g ai/ha) was 35 and the “Plant response rating: Nightshade” value ([9]; 125 g ai/ha) was 70. For the same compound, the “Plant response rating: Nightshade” value ([9]; 250 g ai/ha) was 70, the “Plant response rating: Nutsedge, Yellow” value ([10]; 31 g ai/ha) was 0 and the “Plant response rating: Nutsedge, Yellow” value ([10]; 62 g ai/ha) was 20. For the same compound, the “Plant response rating: Nutsedge, Yellow” value ([10]; 125 g ai/ha) was 40, the “Plant response rating: Nutsedge, Yellow” value ([10]; 250 g ai/ha) was 80 and the “Plant response rating: Pigweed, Palmer” value ([11]; 31 g ai/ha) was 75. The “Plant response rating: Pigweed, Palmer” value ([11]; 62 g ai/ha) was 90, the “Plant response rating: Pigweed, Palmer” value ([11]; 125 g ai/ha) was 95 and the “Plant response rating: Pigweed, Palmer” value ([11]; 250 g ai/ha) was 95. For the same compound, the “Plant response rating: Ragweed” value ([12]; 31 g ai/ha) was 60, the “Plant response rating: Ragweed” value ([12]; 62 g ai/ha) was 90 and the “Plant response rating: Ragweed” value ([12]; 125 g ai/ha) was 95. For the same compound, the “Plant response rating: Ragweed” value ([12]; 250 g ai/ha) was 85, the “Plant response rating: Ryegrass, Italian” value ([13]; 31 g ai/ha) was 25 and the “Plant response rating: Ryegrass, Italian” value ([13]; 62 g ai/ha) was 50. For the same compound, the “Plant response rating: Ryegrass, Italian” value ([13]; 125 g ai/ha) was 60, the “Plant response rating: Ryegrass, Italian” value ([13]; 250 g ai/ha) was 90 and the “Plant response rating: Soybean” value (soybean (Glycine max); 31 g ai/ha) was 0. For the same compound, the “Plant response rating: Soybean” value (soybean (Glycine max); 62 g ai/ha) was 0, the “Plant response rating: Soybean” value (soybean (Glycine max); 125 g ai/ha) was 0 and the “Plant response rating: Soybean” value (soybean (Glycine max); 250 g ai/ha) was 0. For the same compound, the “Plant response rating: Surinam Grass” value ([14]; 31 g ai/ha) was 75, the “Plant response rating: Surinam Grass” value ([14]; 62 g ai/ha) was 90 and the “Plant response rating: Surinam Grass” value ([14]; 125 g ai/ha) was 90. For the same compound, the “Plant response rating: Surinam Grass” value ([14]; 250 g ai/ha) was 90, the “Plant response rating: Velvetleaf” value ([15]; 31 g ai/ha) was 0 and the “Plant response rating: Velvetleaf” value ([15]; 62 g ai/ha) was 50. For the same compound, the “Plant response rating: Velvetleaf” value ([15]; 125 g ai/ha) was 65 and the “Plant response rating: Velvetleaf” value ([15]; 250 g ai/ha) was 65.
